For this assay, the target named is T1, Cbl-b ubiquitin ligase (N1/2 construct) (Homo sapiens, UniProt Q13191).
T1 construct: 75-nM Cbl-b (N1/2 construct) [27]
Kind of assay: Cbl-b biochemical assay (in vitro autoubiquitination ELISA, inhibition of ubiquitin ligase activity). Particulars: in vitro enzymatic activity of Cbl-b ubiquitin ligase; 75-nM Cbl-b, 100 µM ATP, 60 min reaction; read-out: Cbl-b inhibitory activity IC50. The protocol:
Compounds 1–10 were tested for their ability to inhibit the in vitro enzymatic activity of the Cbl-b ubiquitin ligase (Table 3). […] There was no clear pattern of N-methylation or bromine substitution of the two pyrrole rings that directly correlated with the observed Cbl-b inhibitory activity.
An extract of Astrosclera willeyana was identified as an active source in a screening campaign of prefractionated natural product samples for the inhibition of Cbl-b ubiquitin ligase activity. The bulk extract was fractionated as described above, and the resulting fractions were evaluated for activity in the Cbl-b bioassay, the details of which have already been reported. In brief, dose response experiments with chromatography fractions and purified compounds were carried out in a Tris-HCl-based enzymatic assay buffer with the following final composition: 75-nM Cbl-b (N1/2 construct), 50-nM Ube2d2 protein (E2), 10-nM UBE1protein (E1), 50-nM biotinylated ubiquitin, and 0.5-µM unlabeled recombinant ubiquitin. The assay buffer also contained the following additives: 0.1-mM dithiothreitol, 0.5-mg/mL bovine gelatin (type B), 0.5-mM magnesium chloride, and 0.01% Triton X-100. Reactions were initiated by the addition of ATP to a final concentration of 100 µM. Following initiation, reactions were transferred to plates previously precoated overnight with 10 µg/mL of the polyubiquitin-binding domain of Cbl-b (UBA). The UBA domain of Cbl-b binds ubiquitin chains, which results in the capture and enrichment of autopolyubiquitinated Cbl-b. Following a reaction interval of 60 min, the reactions were quenched by the addition of zinc to a final concentration of 2.4 mM. Quenched reactions were incubated at room temperature overnight. Following this incubation period reaction, plates were processed as standard ELISA plates: washed thrice in Tris-buffered saline (with 0.1% Tween-20, 1X TBST), probed with avidin-conjugated horse radish peroxidase, which binds captured biotinylated ubiquitin, washed again in 1X TBST (3X), and then, an avidin-HRP-dependent fluorescent signal (indicating avidin-HRP/biotin-polyubiquitin complexes captured by the UBA coating on the plate) was detected (excitation 325 nm, emission 420 nm) using an Infinite M1000 (Tecan US, Inc., Raleigh, NC, USA) plate reader.

T1 sequence (Q13191 1-483 limits assumed): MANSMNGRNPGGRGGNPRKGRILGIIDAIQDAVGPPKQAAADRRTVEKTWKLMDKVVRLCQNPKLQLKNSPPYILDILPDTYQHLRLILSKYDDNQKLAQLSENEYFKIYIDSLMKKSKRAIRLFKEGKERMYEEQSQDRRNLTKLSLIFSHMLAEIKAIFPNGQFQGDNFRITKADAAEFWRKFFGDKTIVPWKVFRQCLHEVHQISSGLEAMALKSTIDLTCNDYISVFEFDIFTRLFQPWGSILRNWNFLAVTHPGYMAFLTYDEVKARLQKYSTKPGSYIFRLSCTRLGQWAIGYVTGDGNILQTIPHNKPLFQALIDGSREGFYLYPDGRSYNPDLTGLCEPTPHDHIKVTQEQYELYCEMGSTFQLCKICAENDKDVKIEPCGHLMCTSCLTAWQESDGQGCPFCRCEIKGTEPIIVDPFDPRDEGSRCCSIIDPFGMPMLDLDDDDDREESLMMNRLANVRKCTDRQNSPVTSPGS

For the compound `Cn1cc(Br)cc1C(=O)NCC1C(CNC(=O)c2ccc(Br)[nH]2)Cc2[nH]c(N)nc2C1c1c[nH]c(N)n1` (stereo not shown) [Compound 4, N(1)-methylisoageliferin], the IC50 stood at 33000 nM.

As to `Cn1c(Br)ccc1C(=O)NC[C@H]1Cc2nc(N)[nH]c2[C@@H](c2c[nH]c(N)n2)[C@@H]1CNC(=O)c1cc(Br)c[nH]1` [Compound 5, N(1′)-methylisoageliferin], the IC50 was 25000 nM.

For the compound `Cn1cc(Br)cc1C(=O)NC[C@H]1Cc2nc(N)[nH]c2[C@@H](c2c[nH]c(N)n2)[C@@H]1CNC(=O)c1cc(Br)cn1C` [Compound 8, N(1),N(1′)-dimethylageliferin], the IC50 worked out at 19000 nM.

Turning to `Cn1cc(Br)cc1C(=O)NC[C@@H]1[C@@H](CNC(=O)c2ccc(Br)n2C)Cc2nc(N)[nH]c2[C@H]1c1c[nH]c(N)n1` [Compound 7, N(1),N(1′)-dimethylisoageliferin], the IC50 is 18000 nM.

As to `Cn1c(C(=O)NC[C@H]2Cc3nc(N)[nH]c3[C@@H](c3c[nH]c(N)n3)[C@@H]2CNC(=O)c2cc(Br)c[nH]2)cc(Br)c1Br` [Compound 10, N(1′)-methyl-2′-bromoageliferin], the IC50 was determined as 35000 nM.

For the compound `CNc1nc[n+](C)c2ncn(C/C=C(\C)CC[C@]3(C)C4=CCCC(C)(C)[C@H]4CC[C@H]3C)c12` [Compound 2, Agelasine X], the IC50 was found to be 72000 nM.

On to `CC(=CCn1cnc2c1c(N)nc[n+]2C)CCC1(C)C2=CCCC(C)(C)C2CCC1C` (stereo not shown) [Compound 1, Agelasine W], for which the IC50 stood at 57000 nM.

Take `Cn1cc(Br)cc1C(=O)NC[C@H]1Cc2nc(N)[nH]c2[C@@H](c2c[nH]c(N)n2)[C@@H]1CNC(=O)c1cc(Br)c(Br)[nH]1` [Compound 9, N(1′)-methyl-2-bromoageliferin]: the IC50 is 19000 nM.

As to `Cn1cc(Br)cc1C(=O)NC[C@H]1Cc2nc(N)[nH]c2[C@@H](c2c[nH]c(N)n2)[C@@H]1CNC(=O)c1cc(Br)c[nH]1` [Compound 6, N(1′)-methylageliferin], the IC50 is 30000 nM.

Regarding `CNc1nc[n+](C)c2ncn(C/C=C(\C)CC[C@@]3(C)[C@H](C)CC[C@]4(C)C(C)=CCC[C@H]34)c12` [Compound 3, Agelasine Y], the IC50 came to 66000 nM.

These data come from paper PMC8307156, “Agelasine Diterpenoids and Cbl-b Inhibitory Ageliferins from the Coralline Demosponge Astrosclera willeyana” (Marine Drugs, 2021).
